# Laboratory results from ChEMBL document CHEMBL2203120, “Contribution to investigation of antimicrobial activity of styrylquinolines” (Bioorg Med Chem, 2012).
# Where a SMILES comes first, the peptide text is derived from it. Bridges are numbered along the chain shown (N, C = ends). [ ]: non-standard residue; d: D form. The star is where a group is joined. Ileψ(thiazoline)Cys = CC[C@H](C)[C@H](N)C1=N[C@H](C(=O)*)CS1; dOrn = NCCC[C@@H](N)C(=O)O
# Legend:
# Staphylococcus aureus [1] = assay: Antimicrobial activity against Staphylococcus aureus CCM 4516/08 after 24 hrs by broth microdilution method; type: functional; details: CCM 4516/08, 24 h
# Aspergillus fumigatus = assay: Antimicrobial activity against Aspergillus fumigatus 231 after 24 hrs by broth microdilution test; type: functional; details: Aspergillus fumigatus, 231, 24 h
# Staphylococcus aureus [2] = assay: Antimicrobial activity against methicillin-resistant Staphylococcus aureus H 5996/08 after 24 hrs by broth microdilution method; type: functional; details: H 5996/08, 24 h
# Candida tropicalis [3] = assay: Antimicrobial activity against Candida tropicalis 156 after 24 hrs by broth microdilution test; type: functional; details: Candida tropicalis, 156, 24 h
# Candida albicans [4] = assay: Antimicrobial activity against Candida albicans ATCC 44859 after 24 hrs by broth microdilution test; type: functional; details: ATCC 44859, 24 h
# [5] = system: Trichophyton mentagrophytes; assay: Antimicrobial activity against Trichophyton mentagrophytes 445 after 72 hrs by broth microdilution test; type: functional; details: Trichophyton mentagrophytes, 445, 72 h
# Staphylococcus aureus [6] = assay: Antimicrobial activity against methicillin-resistant Staphylococcus aureus H 5996/08 after 48 hrs by broth microdilution method; type: functional; details: H 5996/08, 48 h
# Pichia kudriavzevii [7] = assay: Antimicrobial activity against Candida krusei ATCC 6258 after 24 hrs by broth microdilution test; type: functional; details: ATCC 6258, 24 h
# Staphylococcus aureus [8] = assay: Antimicrobial activity against Staphylococcus aureus CCM 4516/08 after 48 hrs by broth microdilution method; type: functional; details: CCM 4516/08, 48 h
# [9] = system: Staphylococcus epidermidis; assay: Antimicrobial activity against Staphylococcus epidermidis H 6966/08 after 24 hrs by broth microdilution method; type: functional; details: H 6966/08, 24 h
# [10] = Lipophilicity, log P of compound by RP-HPLC analysis; type: physicochemical
# Nakaseomyces glabratus [11] = assay: Antimicrobial activity against Candida glabrata 20/I after 24 hrs by broth microdilution test; type: functional
# Trichosporon beigelii [12] = assay: Antimicrobial activity against Trichosporon beigelii 1188 after 24 hrs by broth microdilution test; type: functional; details: Trichosporon beigelii, 1188, 24 h
# Lichtheimia corymbifera = assay: Antimicrobial activity against Absidia corymbifera 272 after 24 hrs by broth microdilution test; type: functional; details: Lichtheimia corymbifera, 272, 24 h
# [13] = system: Staphylococcus epidermidis; assay: Antimicrobial activity against Staphylococcus epidermidis H 6966/08 after 48 hrs by broth microdilution method; type: functional; details: H 6966/08, 48 h
# Nakaseomyces glabratus [14] = assay: Antimicrobial activity against Candida glabrata 20/I after 48 hrs by broth microdilution test; type: functional
# Trichosporon beigelii [15] = assay: Antimicrobial activity against Trichosporon beigelii 1188 after 48 hrs by broth microdilution test; type: functional; details: Trichosporon beigelii, 1188, 48 h
# Candida albicans [16] = assay: Antimicrobial activity against Candida albicans ATCC 44859 after 48 hrs by broth microdilution test; type: functional; details: ATCC 44859, 48 h
# Pichia kudriavzevii [17] = assay: Antimicrobial activity against Candida krusei ATCC 6258 after 48 hrs by broth microdilution test; type: functional; details: ATCC 6258, 48 h
# Candida tropicalis [18] = assay: Antimicrobial activity against Candida tropicalis 156 after 48 hrs by broth microdilution test; type: functional; details: Candida tropicalis, 156, 48 h
SMILES,MIC90 (Staphylococcus aureus [1]),MIC50 (Aspergillus fumigatus),MIC90 (Staphylococcus aureus [2]),MIC80 (Candida tropicalis [3]),MIC80 (Candida albicans [4]),MIC50 [5],MIC90 (Staphylococcus aureus [6]),MIC80 (Pichia kudriavzevii [7]),MIC90 (Staphylococcus aureus [8]),MIC90 [9],logP [10],MIC80 (Nakaseomyces glabratus [11]),MIC80 (Trichosporon beigelii [12]),MIC50 (Lichtheimia corymbifera),MIC90 [13],MIC80 (Nakaseomyces glabratus [14]),MIC80 (Trichosporon beigelii [15]),MIC80 (Candida albicans [16]),MIC80 (Pichia kudriavzevii [17]),MIC80 (Candida tropicalis [18])
Oc1ccccc1/C=C/c1ccc2ccccc2n1,> 250 µM,> 125 µM,> 250 µM,> 125 µM,> 125 µM,> 125 µM,> 250 µM,> 125 µM,> 250 µM,> 500 µM,4.34,> 125 µM,> 125 µM,> 125 µM,> 250 µM,,,,,
Oc1cccc2ccc(/C=C/c3ccccc3Cl)nc12,> 500 µM,> 500 µM,> 500 µM,> 500 µM,> 500 µM,> 500 µM,> 500 µM,> 500 µM,> 500 µM,> 500 µM,4.9,> 500 µM,> 500 µM,> 500 µM,> 500 µM,,,,,
Clc1ccccc1/C=C/c1ccc2ccccc2n1,> 500 µM,> 500 µM,> 500 µM,> 500 µM,> 500 µM,> 500 µM,> 500 µM,> 500 µM,> 500 µM,> 500 µM,5.25,> 500 µM,> 500 µM,> 500 µM,> 500 µM,,,,,
CCOc1ccc(/C=C/c2ccc3ccccc3n2)cc1,> 500 µM,> 500 µM,> 500 µM,> 500 µM,> 500 µM,> 500 µM,> 500 µM,> 500 µM,> 500 µM,> 500 µM,4.61,> 500 µM,> 500 µM,> 500 µM,> 500 µM,,,,,
Clc1ccccc1/C=C/c1ccc2cccc(Cl)c2n1,> 500 µM,> 500 µM,> 500 µM,> 500 µM,> 500 µM,> 500 µM,> 500 µM,> 500 µM,> 500 µM,> 500 µM,5.85,> 500 µM,> 500 µM,> 500 µM,> 500 µM,,,,,
CCOc1ccccc1/C=C/c1ccc2cccc(O)c2n1,> 500 µM,> 500 µM,> 500 µM,> 500 µM,> 500 µM,> 500 µM,> 500 µM,> 500 µM,> 500 µM,> 500 µM,4.55,> 500 µM,> 500 µM,> 500 µM,> 500 µM,,,,,
CCOc1ccc(/C=C/c2ccc3cccc(O)c3n2)cc1,> 500 µM,> 500 µM,> 500 µM,> 500 µM,> 500 µM,> 500 µM,> 500 µM,> 500 µM,> 500 µM,> 500 µM,4.55,> 250 µM,> 250 µM,> 500 µM,> 500 µM,,,,,
Oc1c(Cl)cc(Cl)c2ccc(/C=C/c3ccccc3Cl)nc12,,,,,,,,,,,6.02,,,,,,,,,
Oc1ccccc1/C=C/c1ccc2c(Cl)cc(Cl)c(O)c2n1,,,,,,,,,,,5.07,,,,,,,,,
Oc1ccc(/C=C/c2ccc3c(Cl)cc(Cl)c(O)c3n2)cc1,7.81 µM,,31.2 µM,,,,31.2 µM,,15.6 µM,62.5 µM,5.07,,,,62.5 µM,> 125 µM,> 125 µM,> 125 µM,> 125 µM,> 125 µM
Oc1ccc(/C=C/c2ccc3c(Cl)cc(Cl)c(O)c3n2)c(O)c1,15.6 µM,,31.2 µM,,,,62.5 µM,,62.5 µM,15.6 µM,4.68,,,,31.2 µM,,,,,
Oc1cc(O)cc(/C=C/c2ccc3c(Cl)cc(Cl)c(O)c3n2)c1,125 µM,,125 µM,> 125 µM,> 125 µM,,125 µM,> 125 µM,125 µM,31.2 µM,4.68,> 125 µM,> 125 µM,,125 µM,> 125 µM,> 125 µM,> 125 µM,> 125 µM,> 125 µM
Oc1c(Cl)cc(Cl)c2ccc(/C=C/c3ccc(/C=C/c4ccc5c(Cl)cc(Cl)c(O)c5n4)cc3)nc12,62.5 µM,3.9 µM,62.5 µM,,0.98 µM,3.9 µM,125 µM,0.98 µM,125 µM,62.5 µM,8.88,0.49 µM,3.9 µM,,125 µM,,,3.9 µM,,
Oc1ccc(/C=C/c2ccc3c(Cl)cc(Cl)c(O)c3n2)cc1O,62.5 µM,,31.2 µM,,,,62.5 µM,,62.5 µM,15.6 µM,4.68,,,,31.2 µM,,,,,
CC[C@H](C)[C@H](N)C1=N[C@H](C(=O)N[C@@H](CC(C)C)C(=O)N[C@H](CCC(=O)O)C(=O)N[C@H](C(=O)N[C@H]2CCCCNC(=O)[C@H](CC(N)=O)NC(=O)[C@@H](CC(=O)O)NC(=O)[C@H](Cc3cnc[nH]3)NC(=O)[C@@H](Cc3ccccc3)NC(=O)[C@H]([C@@H](C)CC)NC(=O)[C@@H](CCCN)NC2=O)[C@@H](C)CC)CS1 [BACITRACIN] ({Ileψ(thiazoline)Cys}-L[dE]IK[dOrn]I[dF]H[dD]N; lactam 4-C),15.6 µM,,15.6 µM,,,,31.6 µM,,31.2 µM,15.6 µM,,,,,31.6 µM,,,,,
O=C(O)c1cn(C2CC2)c2cc(N3CCNCC3)c(F)cc2c1=O [CIPROFLOXACIN],0.98 µM,,500 µM,,,,500 µM,,0.98 µM,250 µM,,,,,250 µM,,,,,
CC1(C)S[C@@H]2[C@H](NC(=O)COc3ccccc3)C(=O)N2[C@H]1C(=O)O [PENICILLIN V],0.24 µM,,125 µM,,,,125 µM,,0.24 µM,31.2 µM,,,,,125 µM,,,,,
